# Measured values taken from patent US20260174721A1, “AGENT FOR RESTORING METAL HOMEOSTASIS” (Oxford Antibiotic Group GmbH, priority 2022, published 2026).
# Tests used:
# [1] = tested on: transgenic C. elegans strain NL5901; experiment: α-synuclein test system: reduction of α-synuclein-GFP expression in transgenic C. elegans strain NL5901 (Parkinson testing); assay type: in vivo, Caenorhabditis elegans; details: NL5901, GFP readout 24 to 48 hours, tested at 1 mg/ml, 100 μg/ml, 10 μg/ml, — = no effect even at 1 mg/ml; for minimal effective concentration: Caenorhabditis elegans, read-out: Parkinson: concentration range in which a reduction in α-synuclein expression was detectable
# Experimental: (§1) The same substances as above were tested in a 96-well procedure in the initially mentioned screening assay using the nematode Caenorhabditis elegans (Pretsch et al., see above) in a standardized α-synuclein test system using the transgenic C. elegans strain NL5901 for their potential suitability as an agent for treating Parkinson's disease. This worm strain expresses human α-synuclein bound to green fluorescent protein (GFP) in all muscle cells. GFP labeling allows a direct detection of expressed protein levels using a multiplate reader for 24 to 48 hours.
# (§2) For this purpose, the substances were again tested at concentrations of 1 mg/ml, 100 μg/ml, and 10 μg/ml, but this time in comparison to the initially mentioned Parkinson therapeutic agent levodopa as a control.
# [2] = tested on: transgenic C. elegans strain CL2659; experiment: β-amyloid test system: delay of paralysis in transgenic C. elegans strain CL2659 (Alzheimer testing); assay type: in vivo, Caenorhabditis elegans; details: CL2659 stage L3 larvae, 48 hours, tested at 1 mg/ml, 100 μg/ml, 10 μg/ml, — = no effect even at 1 mg/ml; for minimal effective concentration: Caenorhabditis elegans, read-out: Alzheimer: concentration range in which a delay in paralysis was observed
# Experimental: For this purpose, stage L3 worm larvae were used at a density of 10-20 worms per well. The expression of β-amyloid in the muscle cells was induced by increasing the temperature, and the associated paralysis was recorded at regular intervals until the end of the test after 48 hours.
# (§3) For this purpose, the above substances were tested at concentrations of 1 mg/ml, 100 μg/ml, and 10 μg/ml in comparison with quercetin as a […] control.
# [3] = tested on: Caenorhabditis elegans; experiment: C. elegans nematode assay, overall rating over the Alzheimer and Parkinson tests; assay type: in vivo; details: for minimal effective concentration: Caenorhabditis elegans, read-out: Score
# Experimental: The substances (1) to (41) and (101) to (108), prepared in the above synthesis examples or purchased, were tested for their potential suitability as an agent for treating Alzheimer's disease in a 96-well procedure in the initially mentioned screening assay using the nematode Caenorhabditis elegans (Pretsch et al., see above) in a standardized β-amyloid test system using the transgenic C. elegans strain CL2659. For this purpose, stage L3 worm larvae were used at a density of 10-20 worms per well. The expression of β-amyloid in the muscle cells was induced by increasing the temperature, and the associated paralysis was recorded at regular intervals until the end of the test after 48 hours.
# as §3, §1, §2
# [4] = tested on: mouse test model; details: Parkinson's disease; cited from earlier work
# [5] = tested on: metallothioneins; details: C. elegans nematode assay; cited from earlier work
# [6] = rating from the effective concentration in both tests
SMILES,minimal effective concentration [1] [µg/mL],minimal effective concentration [2] [µg/mL],"minimal effective concentration [3, 6] [µg/mL]",further results
"COC(=O)CC(=O)NC12CC3CC(CC(C3)C1)C2 [(16), malonic acid methyl ester N-(adamantan-1-yl)amide]",> 10,> 10,10 to 100,
"O=C(O)CC(=O)NC12CC3CC(CC(C3)C1)C2 [(17), N-(adamantan-1-yl)malonic acid amide]",> 10,> 10,10 to 100,
"NCCCNC(=O)CC(=O)NC12CC3CC(CC(C3)C1)C2 [(18), N-adamantan-1-yl-N′-(3-aminopropyl)malonic acid diamide]",> 100,> 100,> 100,
"CN(CCCN)C(=O)CC(=O)NC12CC3CC(CC(C3)C1)C2 [(19), N-adamantan-1-yl-N′-(3-aminopropyl)-N′-methyl malonic acid diamide]",> 10,> 10,10 to 100,
"O=C(CC(=O)N1CCNCC1)NC12CC3CC(CC(C3)C1)C2 [(20), N-adamantan-1-yl-N′-piperazine malonic acid diamide]",> 10,> 10,10 to 100,
"NCCCC(=O)N1CCN(C(=O)CC(=O)NC23CC4CC(CC(C4)C2)C3)CC1 [(21), N-adamantan-1-yl-N′-(4-(4-aminobutyryl)piperazine)malonic acid diamide]",> 10,> 10,10 to 100,
"NCCCNC(=O)CC(=O)N1CCCC2CCCCC21 (centres unmarked) [(24), N-(3-aminopropyl)-N′-decahydroquinoline malonic acid diamide]",> 10,> 10,10 to 100,
"NCCCNC(=O)CC(=O)N1CCC2CCCCC2C1 (centres unmarked) [(25), N-(3-aminopropyl)-N′-decahydroisoquinoline malonic acid diamide]",> 10,> 10,10 to 100,
"CC1(C)C2CCC(CNC(=O)CC(=O)NCCCN)C1C2 (centres unmarked) [(26), N-(3-aminopropyl)-N′-(6,6-dimethylbicyclo[3.1.1]heptane-2-ylmethyl)malonic acid diamide]",> 10,> 10,10 to 100,
"CN(C)CCCNC(=O)CC(=O)OC12CC3CC(CC(C3)C1)C2 [(27), malonic acid adamantan-1-yl ester N-(3-dimethylaminopropyl)amide]",> 10,> 10,10 to 100,
"O=C(CC(=O)OC12CC3CC(CC(C3)C1)C2)NCCCN1CCOCC1 [(28), malonic acid adamantan-1-yl ester N-(3-morpholinopropyl)amide]",> 10,> 10,10 to 100,
"CC12CC3CC(C)(C1)CC(NC(=O)CC(=O)O)(C3)C2 [(32), malonic acid N-(3,5-dimethyl)adamantan-1-yl amide]",> 10,> 10,10 to 100,
"CC12CC3CC(C)(C1)CC(NC(=O)CC(=O)NCCCN)(C3)C2 [(33), N-(3,5-dimethyladamantan-1-yl)-N′-(3-aminopropyl)malonic acid diamide]",> 10,> 10,10 to 100,
"CC12CC3CC(C)(C1)CC(NC(=O)CC(=O)NCCCN1CCOCC1)(C3)C2 [(34), N-(3,5-dimethyladamantan-1-yl)-N′-(3-morpholinopropyl)malonic acid diamide]",> 10,> 10,10 to 100,
"COc1ccccc1N1CCN(C(=O)CC(=O)NC23CC4CC(C)(CC(C)(C4)C2)C3)CC1 [(38), N-(3,5-dimethyladamantan-1-yl)-N′-4-(2-methoxyphenyl)piperazine malonic acid diamide]",,,,"Parkinson: concentration range in which a reduction in α-synuclein expression was detectable [1]: >100 µg/mL; Alzheimer: concentration range in which a delay in paralysis was observed [2]: >100 µg/mL; Score [3, 6]: ++ (a compound that is already effective at a concentration >10 μg/ml and therefore rated “++”)"
"CC12CC3CC(C)(C1)CC(NC(=O)CC(=O)N1CCN(CC(=O)N4CCOCC4)CC1)(C3)C2 [(41), N-(3,5-dimethyladamantan-1-yl)-N′-4-(2-morpholino-2-oxoethyl)piperazine malonic acid diamide]",> 10,> 10,10 to 100,concentration from which the compound was effective ([3]; both tests): > 10 µg/mL
"CC(C)(S)[C@@H](N)C(=O)O [D-penicillamine, 2-amino-3-mercapto-3-methyl butanoic acid]",,,,neuroprotective effect / neurotoxicity [4]: did not show any neuroprotective effect
"Oc1c(I)cc(Cl)c2cccnc12 [clioquinol, 5-chloro-7-iodoquinolin-8-ol]",,,,body's own biosynthesis of metallothioneins [5]: prolongation of the body's own biosynthesis of metallothioneins
"CCN(CC)C(=S)S [diethyl dithiocarbamate, diethyldithiocarbamate]",,,,neuroprotective effect / neurotoxicity [4]: higher neurotoxicity
"Cc1cc(O)c2c(c1)C(=O)c1cc(O)cc(O)c1C2=O [emodin, 1,3,8-trihydroxy-6-methylanthracene-9,10-dione]",,,,body's own biosynthesis of metallothioneins [5]: prolongation of the body's own biosynthesis of metallothioneins
